Measured values published in patent US12612394B2, “Herbicidal malonamides” (BASF SE, priority 2020, dated 2026).

Columns and labels:
SETVI = assay: greenhouse experiment, post-emergence treatment; type: in vivo, Setaria viridis; conditions: application rate 0.250 kg/ha, post-emergence method
Text: (§1) The culture containers used were plastic flowerpots containing loamy sand with approximately 3.0% of humus as the substrate. The seeds of the test plants were sown separately for each species.
(§2) For the pre-emergence treatment, the active ingredients, which had been suspended or emulsified in water, were applied directly after sowing by means of finely distributing nozzles. The containers were irrigated gently to promote germination and growth and subsequently covered with transparent plastic hoods until the test plants had rooted. This cover caused uniform germination of the test plants, unless this had been impaired by the active ingredients. For the post-emergence treatment, the test plants were first grown to a height of 3 to 15 cm, depending on the plant habit, and only then treated with the active ingredients which had been suspended or emulsified in water. For this purpose, the test plants were either sown directly and grown in the same containers, or they were first grown separately as seedlings and transplanted into the test containers a few days prior to treatment.
(§3) Depending on the species, the test plants were kept at 10-25° C. or 20-35° C., respectively. The test period extended over 2 to 4 weeks. During this time, the test plants were tended, and their response to the individual treatments was evaluated.
(§4) Evaluation was carried out using a scale from 0 to 100. […]

ECHCG = assay: greenhouse experiment, pre-emergence treatment; type: in vivo, Echinocloa crus-galli; conditions: application rate 1,000 kg/ha, pre-emergence method
Text: as §1, §2, §3, §4

ALOMY = assay: greenhouse experiment, pre-emergence treatment; type: in vivo, Alopercurus myosuroides; conditions: application rate 0.125 kg/ha, pre-emergence method
Text: as §1, §2, §3, §4

SETFA = assay: greenhouse experiment, pre-emergence treatment; type: in vivo, Setaria faberi; conditions: pre-emergence method
Text: as §1, §2, §3, §4

APESV = assay: greenhouse experiment, post-emergence treatment; type: in vivo, Apera spica-venti; conditions: application rate 0.500 kg/ha, post-emergence method
Text: as §1, §2, §3, §4

AMARE [1] = assay: greenhouse experiment, pre-emergence treatment; type: in vivo, Amaranthus retroflexus; conditions: application rate 1,000 kg/ha, pre-emergence method
Text: as §1, §2, §3, §4

AMARE [2] = assay: greenhouse experiment, post-emergence treatment; type: in vivo, Amaranthus retroflexus; conditions: application rate 0.125 kg/ha, post-emergence method
Text: as §1, §2, §3, §4

ABUTH = assay: greenhouse experiment, pre-emergence treatment; type: in vivo, Abutilon theophrasti; conditions: application rate 0.125 kg/ha, pre-emergence method
Text: as §1, §2, §3, §4

For `COC(=O)[C@@H]1C=C[C@H](NC(=O)C(OC)C(=O)Nc2cc(OC)c(C)c(OC)c2)C1` (stereo partly shown) [I.197], the “herbicidal activity against SETVI” value (SETVI) was “good (A good herbicidal activity is given at values of 70 to 90)”.

For `COC(C(=O)Nc1cc(Cl)cc(Cl)c1)C(=O)NC1CO[C@@H](C(=O)O)C1` (stereo in doubt) [I.60, cis-4-[[3-(3,5-dichloroanilino)-2-methoxy-3-oxo-propanoyl]amino]tetrahydrofuran-2-carboxylate], the “herbicidal activity against ECHCG” value (ECHCG) was “good (A good herbicidal activity is given at values of 70 to 90)”.

In the case of `COC(C(=O)Nc1cc(Cl)cc(Cl)c1)C(=O)N[C@H]1C=C[C@@H](C(=O)OC(C)C)C1` (stereo partly shown) [I.159], the “herbicidal activity against ALOMY” value (ALOMY) is reported as “very good (a very good herbicidal activity is given at values of 90 to 100)” and the “herbicidal activity against SETFA” value (SETFA; application rate 0.125 kg/ha) is reported as “very good (a very good herbicidal activity is given at values of 90 to 100)”.

With `COC(=O)[C@H]1C[C@@H](NC(=O)C(OC)C(=O)Nc2cc(Cl)cc(Cl)c2)CO1` (relative stereo) [I.40, methyl cis-4-[[3-(3,5-dichloroanilino)-2-methoxy-3-oxo-propanoyl]amino]tetrahydrofuran-2-carboxylate] the “herbicidal activity against ECHCG” value (ECHCG) was “very good (a very good herbicidal activity is given at values of 90 to 100)”.

For `COC(=O)CC(NC(=O)C(OC)C(=O)Nc1cc(Cl)cc(Cl)c1)C(F)(F)F` (stereo not shown) [I.42], the “herbicidal activity against APESV” value (APESV) was “good (A good herbicidal activity is given at values of 70 to 90)”.

In the case of `CNC(=O)[C@@H]1C[C@H](NC(=O)C(OC)C(=O)Nc2cc(F)cc(F)c2)CO1` (relative stereo) [I.100], the “herbicidal activity against AMARE” value (AMARE [1]) is reported as “very good (a very good herbicidal activity is given at values of 90 to 100)”.

In the case of `COC(=O)[C@@H]1C=C[C@H](NC(=O)C(OC)C(=O)Nc2cccc(OC(F)(F)C(F)F)c2)C1` (stereo partly shown) [I.192], the “herbicidal activity against AMARE” value (AMARE [2]) is reported as “good (A good herbicidal activity is given at values of 70 to 90)”.

For `COC(C(=O)Nc1cc(Cl)cc(Cl)c1)C(=O)N[C@H]1C=C[C@@H](C(=O)OC2CC2)C1` (relative stereo) [I.185], the “herbicidal activity against ABUTH” value (ABUTH) was “very good (a very good herbicidal activity is given at values of 90 to 100)”.

For `COC(=O)C1C=CC(NC(=O)C(OC(F)F)C(=O)Nc2cc(Cl)cc(Cl)c2)C1` (stereo not shown) [I.173], the “herbicidal activity against SETFA” value (SETFA; application rate 0.250 kg/ha) was “good (A good herbicidal activity is given at values of 70 to 90)”.
